In BindingDB's records for doi:10.1021/jm00075a026 (Solvay Duphar, 1994):
pKi: −log10 of the molar value.

Target: T1, Glycine receptor subunit alpha-4 (Mus musculus, UniProt Q61603)
T1 sequence (Q61603 whole entry): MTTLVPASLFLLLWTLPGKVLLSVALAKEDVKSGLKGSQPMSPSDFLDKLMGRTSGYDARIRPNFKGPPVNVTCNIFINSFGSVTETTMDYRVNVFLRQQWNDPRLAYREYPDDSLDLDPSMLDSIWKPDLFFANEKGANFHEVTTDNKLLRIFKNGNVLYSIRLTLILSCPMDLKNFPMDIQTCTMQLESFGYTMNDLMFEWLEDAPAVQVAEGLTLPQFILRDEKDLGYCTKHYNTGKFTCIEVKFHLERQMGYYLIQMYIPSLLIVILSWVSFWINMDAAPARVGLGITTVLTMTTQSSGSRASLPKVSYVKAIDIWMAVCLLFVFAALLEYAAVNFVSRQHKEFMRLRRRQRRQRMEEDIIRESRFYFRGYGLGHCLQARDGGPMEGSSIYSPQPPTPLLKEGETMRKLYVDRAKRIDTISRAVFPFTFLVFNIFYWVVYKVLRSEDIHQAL
Experiment: ChEBML_219281
Protocol: The binding affinity was measured on glycine receptor using [3H]- strychnine as radioligand.

With Cc1nccn1CC1CCc2c(c3ccccc3n2C)C1=O (stereo unspecified) [NSC_68647] the pKi was < 5.00.
